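Five compound concentrations were applied to cells in 96-well plates for 48 hours; endpoints were derived by simple linear interpolation of the resulting dose-response curve. TGI denotes the concentration required for complete inhibition of growth.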
Assays:
Assay in all cases: NCI tumour cell line growth inhibition, 48 h
CAKI-1 renal = tested on: CAKI-1 renal
NCI/ADR-RES ovarian = tested on: NCI/ADR-RES ovarian
HCC-2998 colon = tested on: HCC-2998 colon
HL-60(TB) leukemia = tested on: HL-60(TB) leukemia
COLO 205 colon = tested on: COLO 205 colon
NCI-H226 lung = tested on: NCI-H226 lung
SK-MEL-5 melanoma = tested on: SK-MEL-5 melanoma
LOX IMVI melanoma = tested on: LOX IMVI melanoma
K-562 leukemia = tested on: K-562 leukemia
SN12C renal = tested on: SN12C renal
HOP-62 NSCLC = tested on: HOP-62 NSCLC
SK-MEL-28 melanoma = tested on: SK-MEL-28 melanoma
HCT-116 colon = tested on: HCT-116 colon
OVCAR-5 ovarian = tested on: OVCAR-5 ovarian
SNB-19 CNS = tested on: SNB-19 CNS
NCI-H460 lung = tested on: NCI-H460 lung
T-47D breast = tested on: T-47D breast

## O=C(NC(Nc1ccc(F)c(Cl)c1)(C(F)(F)F)C(F)(F)F)OCc1ccccc1
CAKI-1 renal
  TGI: > 100 µM
NCI/ADR-RES ovarian
  TGI: > 100 µM
HCC-2998 colon
  TGI: 64.8 µM
HL-60(TB) leukemia
  TGI: 40.3 µM
COLO 205 colon
  TGI: 35.1 µM
NCI-H226 lung
  TGI: > 100 µM
SK-MEL-5 melanoma
  TGI: > 100 µM
LOX IMVI melanoma
  TGI: > 100 µM
K-562 leukemia
  TGI: > 100 µM
SN12C renal
  TGI: > 100 µM
HOP-62 NSCLC
  TGI: > 100 µM
SK-MEL-28 melanoma
  TGI: > 100 µM
HCT-116 colon
  TGI: > 100 µM
OVCAR-5 ovarian
  TGI: > 100 µM
SNB-19 CNS
  TGI: 51 µM
NCI-H460 lung
  TGI: > 100 µM
T-47D breast
  TGI: > 100 µM

## O=C(c1ccccc1)c1sc2c(=O)c(C(=O)c3ccccc3)c(C(=O)c3ccccc3)sc2c(=O)c1C(=O)c1ccccc1
CAKI-1 renal
  TGI: 34.5 µM
NCI/ADR-RES ovarian
  TGI: 74.9 µM
HCC-2998 colon
  TGI: 44 µM
HL-60(TB) leukemia
  TGI: 48.4 µM
COLO 205 colon
  TGI: > 100 µM
NCI-H226 lung
  TGI: > 100 µM
SK-MEL-5 melanoma
  TGI: > 100 µM
LOX IMVI melanoma
  TGI: > 100 µM
K-562 leukemia
  TGI: > 100 µM
SN12C renal
  TGI: > 100 µM
HOP-62 NSCLC
  TGI: > 100 µM
SK-MEL-28 melanoma
  TGI: > 100 µM
HCT-116 colon
  TGI: > 100 µM
OVCAR-5 ovarian
  TGI: > 100 µM
SNB-19 CNS
  TGI: > 100 µM
NCI-H460 lung
  TGI: > 100 µM
T-47D breast
  TGI: > 100 µM

## O=C(c1ccc(Br)cc1)n1c2ccc(Br)cc2c2nc3ccccc3nc21
CAKI-1 renal
  TGI: > 100 µM
NCI/ADR-RES ovarian
  TGI: > 100 µM
HCC-2998 colon
  TGI: > 100 µM
HL-60(TB) leukemia
  TGI: > 100 µM
COLO 205 colon
  TGI: > 100 µM
NCI-H226 lung
  TGI: > 100 µM
SK-MEL-5 melanoma
  TGI: > 100 µM
LOX IMVI melanoma
  TGI: > 100 µM
K-562 leukemia
  TGI: > 100 µM
SN12C renal
  TGI: > 100 µM
HOP-62 NSCLC
  TGI: > 100 µM
SK-MEL-28 melanoma
  TGI: > 100 µM
HCT-116 colon
  TGI: > 100 µM
OVCAR-5 ovarian
  TGI: > 100 µM
SNB-19 CNS
  TGI: > 100 µM
NCI-H460 lung
  TGI: > 100 µM
T-47D breast
  TGI: > 100 µM

## Cc1cc(NS(=O)(=O)c2ccc(Nc3c4ccccc4nc4ccc(C(=O)Nc5ccc(S(N)(=O)=O)cc5)cc34)cc2)no1
CAKI-1 renal
  TGI: > 100 µM
NCI/ADR-RES ovarian
  TGI: > 100 µM
HCC-2998 colon
  TGI: > 100 µM
HL-60(TB) leukemia
  TGI: > 100 µM
COLO 205 colon
  TGI: > 100 µM
NCI-H226 lung
  TGI: > 100 µM
SK-MEL-5 melanoma
  TGI: > 100 µM
LOX IMVI melanoma
  TGI: > 100 µM
K-562 leukemia
  TGI: > 100 µM
SN12C renal
  TGI: > 100 µM
HOP-62 NSCLC
  TGI: > 100 µM
SK-MEL-28 melanoma
  TGI: > 100 µM
HCT-116 colon
  TGI: > 100 µM
OVCAR-5 ovarian
  TGI: > 100 µM
SNB-19 CNS
  TGI: > 100 µM
NCI-H460 lung
  TGI: > 100 µM
T-47D breast
  TGI: > 100 µM

## CCS(=O)(=O)CCn1cnc2c1c(=O)n(C)c(=O)n2C
CAKI-1 renal
  TGI: > 100 µM
NCI/ADR-RES ovarian
  TGI: > 100 µM
HCC-2998 colon
  TGI: > 100 µM
HL-60(TB) leukemia
  TGI: > 100 µM
COLO 205 colon
  TGI: > 100 µM
NCI-H226 lung
  TGI: > 100 µM
SK-MEL-5 melanoma
  TGI: > 100 µM
LOX IMVI melanoma
  TGI: > 100 µM
K-562 leukemia
  TGI: > 100 µM
SN12C renal
  TGI: > 100 µM
HOP-62 NSCLC
  TGI: > 100 µM
SK-MEL-28 melanoma
  TGI: > 100 µM
HCT-116 colon
  TGI: > 100 µM
OVCAR-5 ovarian
  TGI: > 100 µM
SNB-19 CNS
  TGI: > 100 µM
NCI-H460 lung
  TGI: > 100 µM
T-47D breast
  TGI: > 100 µM

## C=CCOC(=O)[C@@H]1C[C@@H](OC(C)(C)C)CN1C(=O)[C@@H]1[C@H]2OC(C)(C)O[C@H]2CN1C(=O)OCC1c2ccccc2-c2ccccc21
CAKI-1 renal
  TGI: 16.9 µM
NCI/ADR-RES ovarian
  TGI: 9.87 µM
HCC-2998 colon
  TGI: 30.7 µM
HL-60(TB) leukemia
  TGI: 29.1 µM
COLO 205 colon
  TGI: 45.7 µM
NCI-H226 lung
  TGI: 47.7 µM
SK-MEL-5 melanoma
  TGI: 37 µM
LOX IMVI melanoma
  TGI: 4.87 µM
K-562 leukemia
  TGI: > 56.9 µM
SN12C renal
  TGI: 32.2 µM
HOP-62 NSCLC
  TGI: 4.51 µM
SK-MEL-28 melanoma
  TGI: 34.6 µM
HCT-116 colon
  TGI: 31.8 µM
OVCAR-5 ovarian
  TGI: 32.9 µM
SNB-19 CNS
  TGI: 33 µM
NCI-H460 lung
  TGI: 23.6 µM
T-47D breast
  TGI: 45 µM

## C[C@]12[C@@H]3CC[C@H]1[C@@H](OC(=O)Nc1cc([N+](=O)[O-])cc([N+](=O)[O-])c1)C(=O)N2CC3
CAKI-1 renal
  TGI: > 100 µM
NCI/ADR-RES ovarian
  TGI: > 100 µM
HCC-2998 colon
  TGI: > 100 µM
HL-60(TB) leukemia
  TGI: > 100 µM
COLO 205 colon
  TGI: > 100 µM
NCI-H226 lung
  TGI: > 100 µM
SK-MEL-5 melanoma
  TGI: > 100 µM
LOX IMVI melanoma
  TGI: > 100 µM
K-562 leukemia
  TGI: > 100 µM
SN12C renal
  TGI: > 100 µM
HOP-62 NSCLC
  TGI: > 100 µM
SK-MEL-28 melanoma
  TGI: > 100 µM
HCT-116 colon
  TGI: > 100 µM
OVCAR-5 ovarian
  TGI: > 100 µM
SNB-19 CNS
  TGI: > 100 µM
NCI-H460 lung
  TGI: > 100 µM
T-47D breast
  TGI: > 100 µM

## C=CC[C@@]1(C)CCCCCCCCC[C@@](C)(CC=C)C1=O
CAKI-1 renal
  TGI: > 100 µM
NCI/ADR-RES ovarian
  TGI: > 100 µM
HCC-2998 colon
  TGI: 35 µM
HL-60(TB) leukemia
  TGI: 46.1 µM
COLO 205 colon
  TGI: 42.3 µM
NCI-H226 lung
  TGI: 48.4 µM
SK-MEL-5 melanoma
  TGI: 29.5 µM
LOX IMVI melanoma
  TGI: 33.6 µM
K-562 leukemia
  TGI: 74.5 µM
SN12C renal
  TGI: 76.8 µM
HOP-62 NSCLC
  TGI: > 100 µM
SK-MEL-28 melanoma
  TGI: > 100 µM
HCT-116 colon
  TGI: > 100 µM
OVCAR-5 ovarian
  TGI: > 100 µM
SNB-19 CNS
  TGI: 45 µM
NCI-H460 lung
  TGI: 59.1 µM
T-47D breast
  TGI: 60.9 µM

## Cc1ccc(/C=C/C(=N/NC(=O)N/N=C(/C=C/c2ccc(C)cc2)C(C)(C)CN2CCCCC2)C(C)(C)CN2CCCCC2)cc1
CAKI-1 renal
  TGI: 5.56 µM
NCI/ADR-RES ovarian
  TGI: 3.08 µM
HCC-2998 colon
  TGI: 3.21 µM
HL-60(TB) leukemia
  TGI: 3.35 µM
COLO 205 colon
  TGI: 3.07 µM
NCI-H226 lung
  TGI: 4.51 µM
SK-MEL-5 melanoma
  TGI: 3.08 µM
LOX IMVI melanoma
  TGI: 2.64 µM
K-562 leukemia
  TGI: 1.68 µM
SN12C renal
  TGI: 3.27 µM
HOP-62 NSCLC
  TGI: 3.08 µM
SK-MEL-28 melanoma
  TGI: 3.18 µM
HCT-116 colon
  TGI: 2.64 µM
OVCAR-5 ovarian
  TGI: 4.98 µM
SNB-19 CNS
  TGI: 4.4 µM
NCI-H460 lung
  TGI: 3.08 µM
T-47D breast
  TGI: 4.02 µM

## S=c1sc2nc(Cl)nc(Cl)c2s1
CAKI-1 renal
  TGI: 17.8 µM
NCI/ADR-RES ovarian
  TGI: 38.2 µM
HCC-2998 colon
  TGI: 31.6 µM
HL-60(TB) leukemia
  TGI: 8.78 µM
COLO 205 colon
  TGI: 20.4 µM
NCI-H226 lung
  TGI: 32.7 µM
SK-MEL-5 melanoma
  TGI: 21.6 µM
LOX IMVI melanoma
  TGI: 30.3 µM
K-562 leukemia
  TGI: 28.1 µM
SN12C renal
  TGI: 32.4 µM
HOP-62 NSCLC
  TGI: 36.9 µM
SK-MEL-28 melanoma
  TGI: 30.4 µM
HCT-116 colon
  TGI: 26 µM
OVCAR-5 ovarian
  TGI: 29.5 µM
SNB-19 CNS
  TGI: 34.8 µM
NCI-H460 lung
  TGI: 30.8 µM
T-47D breast
  TGI: 31.9 µM
